Assay results reported in PubChem BioAssay (NCI).
Values joined by “and” are separate entries in the source; they are usually repeats but may differ in a detail not shown here. Equal entries are not always repeated.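 1) Cells in 96-well plates. 2) Compound, 48 h, 5 concentrations. 3) Linear interpolation between surrounding doses. 4) Unreached endpoint = highest concentration. GI50 marks 50% less growth. TGI denotes the concentration required for complete inhibition of growth.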

Legend:
Assay in all cases: NCI tumour cell line growth inhibition, 48 h
[1] = test system: MDA-MB-231 breast
[2] = test system: A549 NSCLC
[3] = test system: HCT-116 colon
[4] = test system: OVCAR-3 ovarian
[5] = test system: MALME-3M melanoma
[6] = test system: DU-145 prostate
[7] = test system: SR leukemia
[8] = test system: CAKI-1 renal
[9] = test system: SW-620 colon
[10] = test system: MDA-MB-435

SMILES	GI50 [1] [µM]	TGI [1] [µM]	GI50 [2] [µM]	TGI [2]	GI50 [3] [µM]	TGI [3] [µM]	GI50 [4] [µM]	GI50 [5] [µM]	TGI [5]	GI50 [6] [µM]	GI50 [7] [µM]	TGI [7] [µM]	GI50 [8] [µM]	TGI [8] [µM]	GI50 [9] [µM]	TGI [9]	GI50 [10] [µM]	TGI [4] [µM]	TGI [6] [µM]	TGI [10] [µM]
COc1ccc(/C=C\c2cc(OC)c(OC)c(OC)c2)cc1OC(=O)c1cccc(Cn2cc(CCOC(=O)c3cccc(Cn4nnc5c4C(=O)c4ccccc4C5=O)c3)nn2)c1	< 0.01	16.3	0.0392	> 37.9 µM	< 0.01	> 33.2	< 0.01	0.178	> 71.3 µM	< 0.01	< 0.01	> 100	0.0459	20.1	< 0.01	> 100 µM	< 0.01	–	–	–
NC(=O)C(NC=O)c1ccccc1 (stereo unspecified)	–	> 100	–	> 100 µM	–	> 100	–	–	–	–	–	> 100	–	> 100	–	> 100 µM	–	> 100	> 100	> 100
COc1cc([C@@H]2c3cc4c(cc3[C@H](O)[C@H]3COC(=O)[C@H]23)OCO4)cc(OC)c1OC	< 0.01	–	< 0.005	> 100 µM and 50 µM	< 0.01	0.5	< 0.005	–	> 100 µM and 50 µM	< 0.01	< 0.01	< 0.005	< 0.005	–	< 0.01	> 100 µM and 50 µM	< 0.01	–	0.5	< 0.005
COc1cccc(C2NC(=S)NC(C)=C2C(=O)Nc2ccc(F)c(Cl)c2)c1 (stereo unspecified)	29	> 50	20.8	> 50 µM	23.1	> 50	41.3	–	–	36.3	15.8	40.2	48.9	> 50	> 50	> 50 µM	27.3	> 50	> 50	> 50
CC1OC(OC2CC(O)C3(CO)C4C(O)CC5(C)C(C6=CC(=O)OC6)CCC5(O)C4CCC3(O)C2)C(O)C(O)C1O (stereo unspecified)	0.129	0.641	< 0.0109	< 0.0138 µM	< 0.0139	0.0209	< 0.013	< 0.0131	0.0172 µM	< 0.012	0.0221	0.0546	< 0.0146	0.024	0.02	0.702 µM	0.0222	< 0.0171	< 0.0152	0.0785
CCOC(=O)C(=O)N=Nc1nc2c(O)c3ccccc3c(O)c2s1	–	12.7	–	17.6 µM	–	5.96	–	–	3.48 µM	–	–	> 100	–	35.6	–	5.7 µM	–	4.07	31.6	3.15
COc1cccc(C2C3=C(COC3=O)N(CCO)c3cc4c(cc32)OCCO4)c1 (stereo unspecified)	0.257	34.5	0.207	> 50 µM	0.152	3.16	0.0878	49.1	> 50 µM	0.157	0.0271	–	0.145	> 34.8	0.104	> 50 µM	0.0179	0.254	0.65	0.0767
CC[CH2][Sn]([Cl])([Cl])[CH2]CC	5.16	18.9	18.2	34.3 µM	13.1	25.8	12.9	1.55	4.91 µM	14.5	3.38	80.7	6.69	21	2.61	11.5 µM	12.5	26.1	28.6	26.9
COC(=O)Nc1nc2cc3c(cc2s1)OCCO3	> 50	> 50	> 50	> 50 µM	> 50	> 50	> 50	> 50	> 50 µM	> 50	> 50	> 50	> 50	> 50	> 50	> 50 µM	> 50	> 50	> 50	> 50
CN(C)CCN=Cc1c2ccccc2c(=O)n2c1oc1ccccc12	12.5	29	4.13	20.7 µM	–	–	11.7	–	–	2.97	3.7	> 100	3.62	15.2	–	–	10.1	24	14.5	21.7
OC(COc1cccc2ccccc12)CN1CCN(c2ccccc2)CC1 (stereo unspecified)	15.8	31.8	19.3	36.6 µM	13.4	27	15.1	15.3	31.4 µM	17.7	16.1	41.3	12.6	27.2	15.2	30.1 µM	15.5	28.8	31.9	30.5
COc1ccc(-c2cc(/C=C3\C(=O)Nc4ccc(OC)cc43)[nH]n2)cc1	> 100	> 100	> 100	> 100 µM	9.08	> 100	68.9	> 100	> 100 µM	> 100	0.595	> 100	> 100	> 100	0.912	> 100 µM	0.317	> 100	> 100	26.1
N#Cc1c(-c2ccccc2)cc(-c2ccccc2)n(CCCCC(=O)NO)c1=O	3.27	10.1	3.29	15.7 µM	2.37	10.1	2.26	1.25	13.3 µM	2.96	1.32	8.37	1.61	3.9	2.95	11.9 µM	2.4	7.49	11.3	11.5
COC(=O)c1ccc([N+](=O)[O-])c(O)c1	–	> 100	–	> 100 µM	–	> 100	–	–	> 100 µM	–	–	> 100	–	> 100	–	> 100 µM	–	> 100	> 100	> 100
CN(C)CCCNc1nccc(-c2c(-c3ccc(F)cc3)nn3cc(C(F)(F)F)ccc23)n1	3.83	11.1	> 21.5	> 25 µM	8.66	> 25	8.88	4.32	9.36 µM	> 16.6	5.15	12.6	12.3	> 25	7.33	> 25 µM	5.46	> 25	> 25	15.2
CC(=O)OCC1OC(OC2=C(CC=C(Cl)Cl)C(=O)c3ccccc3C2=O)C(OC(C)=O)C(OC(C)=O)C1OC(C)=O (stereo unspecified)	2.05	5.62	19.5	41.4 µM	1.74	3.92	2.27	2.66	5.83 µM	11.8	3.11	> 100	4.91	17.6	1.74	3.88 µM	4.38	4.88	24.1	16
Cc1ccccc1N=Nc1c(O)[nH]c2ccccc12	–	> 100	–	> 100 µM	–	> 100	–	–	–	–	–	> 100	–	> 100	–	> 100 µM	–	> 100	> 100	> 100
CC1=C([Se]CC(OC(=O)[C@@H](CO)NC(=O)OC(C)(C)C)C(=O)NC(C)(C)C)C(=O)c2ccccc2C1=O (stereo partly specified)	1.62	3.14	1.81	9.44 µM	1.46	2.79	1.8	2.04	3.77 µM	1.9	–	–	1.76	3.39	1.77	3.33 µM	2.01	3.19	3.37	4.1
COC(=O)[C@@]1(C)CC[C@]2(C)CC[C@]3(C)C4=CC=C5C(=CC(=O)C(O)=C5C)[C@]4(C)CC[C@@]3(C)[C@@H]2C1	0.171	0.395	1.21	2.54 µM	0.163	0.32	0.169	0.232	0.446 µM	0.182	0.19	0.564	–	–	0.165	0.414 µM	0.195	0.325	0.382	0.503
CC1(C)CC2C=C(C=O)C3(C=O)CC3(C)C2C1 (stereo unspecified)	–	3.87	–	27.2 µM	–	2.21	–	–	–	–	–	2.45	–	4.26	–	2.4 µM	–	2.27	17.8	3.46
COc1ccc2c(=O)c3cc([N+](=O)[O-])ccc3n(C)c2c1	–	> 100	–	> 100 µM	–	–	–	–	> 100 µM	–	–	> 100	–	> 100	–	> 100 µM	–	> 100	> 100	> 100
